According to PMC8246850, “Functional selective FPR1 signaling in favor of an activation of the neutrophil superoxide generating NOX2 complex” (Journal of Leukocyte Biology, 2020):

Biological target: T1, FPR1 (Homo sapiens, UniProt P21462)
T1 sequence (P21462 1-350): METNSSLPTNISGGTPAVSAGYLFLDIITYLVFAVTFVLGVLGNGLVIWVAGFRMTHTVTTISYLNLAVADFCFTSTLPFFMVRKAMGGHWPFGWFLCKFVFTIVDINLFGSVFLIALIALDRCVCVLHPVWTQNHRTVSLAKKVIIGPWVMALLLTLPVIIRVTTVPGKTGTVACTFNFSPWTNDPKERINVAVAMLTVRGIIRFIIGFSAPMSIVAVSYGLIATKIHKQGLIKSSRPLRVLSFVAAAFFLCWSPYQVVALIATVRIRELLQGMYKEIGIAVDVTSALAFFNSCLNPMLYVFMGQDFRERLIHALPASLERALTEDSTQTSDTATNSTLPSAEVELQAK
Assay: human neutrophil NADPH-oxidase (superoxide) and Ca2+ assays with FPR1/FPR2 antagonists and cross-desensitization; weak β-arrestin recruitment in FPR1 CHO cells
Type: cell-based

Work on RE-04-001 yielded an EC50 of about 1 nM.
